For data set [1], the system named is EL4: mouse thymoma cell. Put plainly: micro-culture tetrazolium assay, in vitro cytotoxicity on EL4. It counts as cell-based. To be noted: for IC50: read-out: In vitro cytotoxicities (IC50) EL4.
Data set [2] has as its system P388: mouse fibroblast leukemia cell. The data set can be described thus: micro-culture tetrazolium assay, in vitro cytotoxicity on P388. The note with it: for anticancer activity, fold higher than that of mitomycin: versus mitomycin. In kind it is cell-based.
Data set [3] deals with HT-29: human colorectal adenocarcinoma cell. Put plainly: micro-culture tetrazolium assay, in vitro cytotoxicity on HT-29. The note with it: for IC50: read-out: In vitro cytotoxicities (IC50) HT-29. In kind it is cell-based. On the procedure:
(§1) The anticancer activities of the deoxoartemisinin dimer and trimer of the present invention were measured by a known micro-culture tetrazolium assay (see Carmichel, J.; DeGraff, W. G; Gazdar, A. F.; Minna, J. D.; Mitchell, J. B., Evaluation of a Tetrazolium-based Semiautomated Colorimetric Assay: Assessment of Chemosensitivity testing, Cancer Res., 1987, 47, 936–42).

Data set [4] deals with MCF7: human breast carcinoma cell. Put plainly: micro-culture tetrazolium assay, in vitro cytotoxicity on MCF7. In kind it is cell-based.
The test system of data set [5] is Bewo: human choriocarcinoma cell. The data set can be described thus: micro-culture tetrazolium assay, in vitro cytotoxicity on Bewo. It counts as cell-based. To be noted: for IC50: read-out: In vitro cytotoxicities (IC50) Bewo.
Data set [6] concerns SKOV3: human ovarian carcinoma cell. Put plainly: micro-culture tetrazolium assay, in vitro cytotoxicity on SKOV3. The note with it: SK-OV-3, read-out: In vitro cytotoxicities (IC50) SKOV3. In kind it is cell-based. Here is the method: as §1
Data set [7] in a line: water solubility. It counts as physicochemical.
Data set [8] concerns A549: human lung cancer cell. Put plainly: micro-culture tetrazolium assay, in vitro cytotoxicity on A549. It counts as cell-based.
Data set [9] concerns PANC-1: human pancreatic cancer cell. Put plainly: micro-culture tetrazolium assay, in vitro cytotoxicity on PANC-1. In kind it is cell-based. To be noted: for IC50: PANC-1 human pancreatic cancer cell, read-out: In vitro cytotoxicities (IC50) PANC-1. Here is the method:
as §1

[10] abbreviates: P388 mouse fibroblast leukemia cell.
[11] abbreviates: MCF7 human breast carcinoma cell.
[12] abbreviates: Bewo human choriocarcinoma cell.
The mark [13] stands for this setting: P388 mouse fibroblast leukemia cell, read-out: In vitro cytotoxicities (IC50) P388.
Where [14] appears, read: MCF7 human breast carcinoma cell, read-out: In vitro cytotoxicities (IC50) MCF7.

A word on the IC50: it is the concentration needed to halve the response being measured. Broadly, the solubility is the concentration that dissolves in the medium under given conditions. Low readings indicate a poorly soluble substance, high ones a readily soluble substance. Broadly, the melting point is the temperature, or range, at which the solid turns liquid.

≈ marks a conversion by molar mass, not a printed value. Read-outs that look alike come from different tables or passages of the source. Bounds are passed on as bounds.

Take “12-(4′-aminobutyl)deoxoartemisinin dimer [Compound (IVc′)]”: in data set [1] (EL4 mouse thymoma cell), the “In vitro cytotoxicities (IC50) EL4” value was >20 µg/mL. Also, the “In vitro cytotoxicities (IC50) P388” value in data set [2] (setting [10]) is >20 µg/mL. The “In vitro cytotoxicities (IC50) HT-29” value in data set [3] worked out at 20.20 µg/mL. Further, in [4] (setting [11]), the “In vitro cytotoxicities (IC50) MCF7” value is >20 µg/mL. Besides, in data set [5] (setting [12]), the “In vitro cytotoxicities (IC50) Bewo” value is >20 µg/mL.
For the molecule `COc1cccc2c1C(=O)c1c(O)c3c(c(O)c1C2=O)C[C@@](O)(C(=O)CO)C[C@@H]3O[C@H]1C[C@H](N)[C@H](O)[C@H](C)O1` [Adriamycin, reference compound], the IC50 was found to be 0.67 µg/mL (≈ 1.23 µM) in [1] (EL4 mouse thymoma cell); 0.39 µg/mL (≈ 0.718 µM) in [2] (setting [13]); 0.1 µg/mL (≈ 0.184 µM) in [3]; 0.12 µg/mL (≈ 0.221 µM) in data set [4] (setting [14]); 6.24 µg/mL (≈ 11.5 µM) in data set [5] (setting [12]).
In the case of `C[C@H]1[C@@H](CCSCC[C@H]2O[C@@H]3O[C@@]4(C)CC[C@H]5[C@H](C)CC[C@@H]([C@H]2C)[C@@]35OO4)O[C@@H]2O[C@@]3(C)CC[C@H]4[C@H](C)CC[C@@H]1[C@@]24OO3` [Compound (IVa1), 12-(2′-ethylsulfide)deoxoartemisinin dimer], the IC50 in [1] (EL4 mouse thymoma cell) turned out to be 0.23 µg/mL (≈ 0.369 µM); in data set [2] (setting [13]), 0.4 µg/mL (≈ 0.642 µM); in [3], 0.24 µg/mL (≈ 0.385 µM); in data set [4] (setting [14]) it was 0.017 µg/mL (≈ 0.0273 µM); in [5] (setting [12]), 14.2 µg/mL (≈ 22.8 µM). Besides, the “anticancer activity, fold higher than that of mitomycin” value in [2] (P388) is “at least 4 fold”.
Consider `CC1CCC2C(C)C(CCS(=O)(=O)CCC3OC4OC5(C)CCC6C(C)CCC(C3C)C46OO5)OC3OC4(C)CCC1C32OO4` (centres unmarked) [Compound (IVa2), 12-(2′-sulfonylethyl)deoxoartemisinin dimer], for which the “In vitro cytotoxicities (IC50) EL4” value in data set [1] (EL4 mouse thymoma cell) amounted to 0.54 µg/mL. In addition, the “In vitro cytotoxicities (IC50) P388” value in data set [2] (setting [10]) worked out at 5.60 µg/mL. In data set [3], the “In vitro cytotoxicities (IC50) HT-29” value was determined as 0.38 µg/mL. Besides, the “In vitro cytotoxicities (IC50) MCF7” value in [4] (setting [11]) stood at 0.025 µg/mL. For the same molecule, in data set [5] (setting [12]), the “In vitro cytotoxicities (IC50) Bewo” value amounted to 1.04 µg/mL. Also, the “anticancer activity, fold higher than that of taxol and adriamycin” value in [5] (Bewo, versus taxol and adriamycin) was “at least 6 fold”.
Take `C[C@H]1[C@@H](CCNC(=O)CC[C@H]2O[C@@H]3O[C@@]4(C)CC[C@H]5[C@H](C)CC[C@@H]([C@H]2C)[C@@]35OO4)O[C@@H]2O[C@@]3(C)CC[C@H]4[C@H](C)CC[C@@H]1[C@@]24OO3` [Compound (IVc), 12-(2′-amidethyl)deoxoartemisinin Dimer]: the IC50 in data set [6] was 12.6 µg/mL (≈ 19.9 µM); in [1] (EL4 mouse thymoma cell), 6.29 µg/mL (≈ 9.92 µM); in [2] (setting [13]), 10.4 µg/mL (≈ 16.4 µM); in [3], 0.69 µg/mL (≈ 1.09 µM); in [4] (setting [14]), 0.005 µg/mL (≈ 0.00789 µM); in data set [5] (setting [12]), 7.5 µg/mL (≈ 11.8 µM). The “anticancer activity, fold higher than that of adriamycin” value in data set [4] (MCF7, versus adriamycin) is recorded as “at least 24 fold”. Moreover, in [4] (MCF7, versus mitomycin), the “anticancer activity, fold higher than that of mitomycin” value was “at least 200 fold”.
In the case of `C[C@H]1[C@@H](CCNC(=O)CC[C@H](N)C(=O)NCC[C@H]2O[C@@H]3O[C@@]4(C)CC[C@H]5[C@H](C)CC[C@@H]([C@H]2C)[C@@]35OO4)O[C@@H]2O[C@@]3(C)CC[C@H]4[C@H](C)CC[C@@H]1[C@@]24OO3` [Compound (IVd), 12-[2′-(N-glutamic)-α,β-amide]deoxoartemisinin dimer], the “water solubility relative to artemisinin” value in data set [7] (compared with artemisinin) is given as “five times more water soluble”. In [7] (water), this molecule gave a solubility of 5210 µg/mL (≈ 7100 µM). In addition, the IC50 was 16.5 µg/mL (≈ 22.5 µM) in data set [1] (EL4 mouse thymoma cell); 15.6 µg/mL (≈ 21.3 µM) in data set [2] (setting [13]); 6.5 µg/mL (≈ 8.86 µM) in data set [3]; 15.3 µg/mL (≈ 20.8 µM) in data set [4] (setting [14]); > 20 µg/mL in data set [5] (setting [12]).
The molecule `C[C@H]1[C@@H](CCNC(=O)CC[C@H](NC(=O)CC[C@H]2O[C@@H]3O[C@]4(C)CC[C@H]5[C@H](C)CC[C@@H]([C@H]2C)[C@@]35OO4)C(=O)NCC[C@H]2O[C@@H]3O[C@]4(C)CC[C@H]5[C@H](C)CC[C@@H]([C@H]2C)[C@@]35OO4)O[C@@H]2O[C@]3(C)CC[C@H]4[C@H](C)CC[C@@H]1[C@@]24OO3` [Compound (IVe), deoxoartemisinin trimer] displayed a melting point of 138 °C. In addition, the IC50 in data set [8] (A549 human lung cancer cell, read-out: In vitro cytotoxicities (IC50) A549) came to 2.45 µg/mL (≈ 2.32 µM). The IC50 in data set [6] is 11.2 µg/mL (≈ 10.6 µM). Further, the IC50 in data set [1] (EL4 mouse thymoma cell) is 1.07 µg/mL (≈ 1.01 µM). The half-inhibitory concentration (IC50) in data set [9] was 2.69 µg/mL (≈ 2.55 µM). The “anticancer activity, fold higher than that of taxol” value in data set [9] (human pancreatic cancer cell, versus taxol) is “at least 2 fold”. Further, the “anticancer activity, fold higher than that of adriamycin” value in [2] (P388, versus adriamycin) is “at least 3 fold”. The “anticancer activity, fold higher than that of mitomycin” value in [2] (P388) is “at least 12 fold”. Besides, the “anticancer activity, fold higher than that of taxol” value in [2] (P388, versus taxol) is on record as “at least 20 fold”. For the same molecule, the IC50 in data set [2] (setting [13]) is 0.12 µg/mL (≈ 0.114 µM). Moreover, the IC50 in [3] is 0.09 µg/mL (≈ 0.0852 µM). Also, the IC50 in [4] (setting [14]) turned out to be 0.017 µg/mL (≈ 0.0161 µM). Also, the IC50 in data set [5] (setting [12]) turned out to be 18.3 µg/mL (≈ 17.3 µM).
As for `CO[C@@]12[C@H](COC(N)=O)C3=C(C(=O)C(C)=C(N)C3=O)N1C[C@@H]1N[C@@H]12` [Mitomycin, reference compound], the IC50 was determined as 1.85 µg/mL (≈ 5.53 µM) in [8] (Homo sapiens, A549, read-out: In vitro cytotoxicities (IC50) A549); 3.94 µg/mL (≈ 11.8 µM) in data set [1] (Mus musculus); 1.5 µg/mL (≈ 4.49 µM) in [2] (Mus musculus, P388, read-out: In vitro cytotoxicities (IC50) P388); 0.02 µg/mL (≈ 0.0598 µM) in data set [3]; 0.93 µg/mL (≈ 2.78 µM) in [4] (Homo sapiens, MCF7, read-out: In vitro cytotoxicities (IC50) MCF7); 0.85 µg/mL (≈ 2.54 µM) in [5] (Homo sapiens, BeWo).
For the molecule `CC(=O)O[C@H]1C(=O)[C@@]2(C)[C@H]([C@H](OC(=O)c3ccccc3)[C@]3(O)C[C@H](OC(=O)[C@H](O)[C@@H](NC(=O)c4ccccc4)c4ccccc4)C(C)=C1C3(C)C)[C@]1(OC(C)=O)CO[C@@H]1C[C@@H]2O` [Taxol, reference compound], the IC50 in [6] worked out at 12.3 µg/mL (≈ 14.4 µM); in [1] (EL4 mouse thymoma cell), 1.34 µg/mL (≈ 1.57 µM); in data set [9], 5.76 µg/mL (≈ 6.75 µM); in [2] (setting [13]), 2.27 µg/mL (≈ 2.66 µM); in [3], 0.01 µg/mL (≈ 0.0117 µM); in [5] (setting [12]), 7.39 µg/mL (≈ 8.65 µM).

Source of the values: patent publication US7205332B2, “Deoxoartemisinin analogs, process for their preparation, and anticancer agent comprising them” (Industry-Academic Cooperation Foundation, Yonsei University, priority 2003, dated 2007).
